In ChEMBL document CHEMBL1149726, “New Pentacyclic Compounds from the Okinawan Marine Sponge Xestospongia sapra” (J Nat Prod, 1992):
Values after ≈ are worked out from the molar mass of the structure shown.

Experiments:
[1] = biological target: T1, DNA topoisomerase 1 (Homo sapiens) (UniProt P11387); experiment: Inhibition of DNA topoisomerase 1
T1 sequence (whole entry): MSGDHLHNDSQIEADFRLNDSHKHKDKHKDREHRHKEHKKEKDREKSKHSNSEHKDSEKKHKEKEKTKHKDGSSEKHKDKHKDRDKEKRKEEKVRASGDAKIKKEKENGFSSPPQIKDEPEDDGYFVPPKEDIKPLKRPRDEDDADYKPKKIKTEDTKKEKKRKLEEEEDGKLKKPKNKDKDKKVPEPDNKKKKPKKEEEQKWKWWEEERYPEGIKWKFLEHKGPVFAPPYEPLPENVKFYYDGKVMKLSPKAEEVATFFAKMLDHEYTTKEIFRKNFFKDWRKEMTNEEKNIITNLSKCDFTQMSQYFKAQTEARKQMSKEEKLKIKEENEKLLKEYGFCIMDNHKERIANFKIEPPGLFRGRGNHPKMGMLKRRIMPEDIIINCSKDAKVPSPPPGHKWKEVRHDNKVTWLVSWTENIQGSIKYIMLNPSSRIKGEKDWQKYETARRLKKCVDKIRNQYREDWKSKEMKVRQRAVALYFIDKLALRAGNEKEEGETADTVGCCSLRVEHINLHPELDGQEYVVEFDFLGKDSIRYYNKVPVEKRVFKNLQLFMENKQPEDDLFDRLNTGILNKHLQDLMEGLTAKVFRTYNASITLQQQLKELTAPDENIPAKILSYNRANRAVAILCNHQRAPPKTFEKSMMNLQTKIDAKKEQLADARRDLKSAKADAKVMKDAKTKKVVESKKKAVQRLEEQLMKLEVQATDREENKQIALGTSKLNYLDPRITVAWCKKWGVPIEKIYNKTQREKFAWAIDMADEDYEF

L1210 [2] = experiment: Cytotoxicity against mouse L1210 cells at 10 ug/ml; format: functional
KB [3] = experiment: Cytotoxicity against human KB cells at 10 ug/ml; format: functional
L1210 [4] = experiment: Cytotoxicity against mouse L1210 cells; format: functional, cell-based
KB [5] = experiment: Cytotoxicity against human KB cells; format: functional, cell-based

MIC [1] | SMILES | Activity (L1210 [2]) | Activity (KB [3]) | IC50 (L1210 [4]) | IC50 (KB [5])
2.5 µg/mL (≈ 7.34 µM) | C[C@@]12CC[C@H](O)[C@@H]3COC(=C31)C(=O)c1cc3c(cc12)C(=O)CCC3O (some centres not stated) | 14.5% | 9.8% | – | –
> 50 µg/mL | C[C@@]12CCC(=O)c3coc(c31)C(=O)c1cc3c(O)ccc(OS(=O)(=O)[O-])c3cc12.[Na+] [HALENAQUINOL SULFATE SODIUM] | 22.4% | 12.2% | – | –
0.4 µg/mL (≈ 1.2 µM) | C[C@@]12CCC(=O)c3coc(c31)C(=O)c1cc3c(cc12)C(=O)C=CC3=O [HELENAQUINONE] | – | – | 1.6 µg/mL (≈ 4.81 µM) | 3.1 µg/mL (≈ 9.33 µM)
10 µg/mL | C[C@@]12CCCc3coc(c31)C(=O)c1cc3c(O)ccc(OS(=O)(=O)[O-])c3cc12.[Na+] [XESTOQUINOL SULFATE SODIUM] | 25.4% | – | – | –
2 µg/mL (≈ 6.28 µM) | C[C@@]12CCCc3coc(c31)C(=O)c1cc3c(cc12)C(=O)C=CC3=O [XESTOQUINONE] | – | – | 0.17 µg/mL (≈ 0.534 µM) | 1.7 µg/mL (≈ 5.34 µM)
12.5 µg/mL (≈ 36.7 µM) | C[C@@]12CC[C@H](O)[C@@H]3COC(=C31)C(=O)c1cc3c(cc12)C(O)CCC3=O (some centres not stated) [XESTOSAPROL A] | 34.9% | 30.1% | – | –
